Among the test systems are BT-549; SK-OV-3; SN12C; TK-10; NCI-H522; DU-145; MCF7; A549; EKVX; HL-60; U-251; OVCAR-5; HCT-15; HT-29; HOP-62; ACHN; NCI-H226; Hs-578T; HCT-116; LOX IMVI.
Holding throughout (assay): growth of human tumour cells (NCI), 48 h

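1) Cells in 96-well plates. 2) Compound, 48 h, 5 concentrations. 3) Linear interpolation between surrounding doses. 4) Unreached endpoint = highest concentration. GI50 = concentration required for 50% inhibition of growth.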 Active and inactive are the calls of the source. No stated cut-off is given here; in the data, active = GI50 up to about 1.1 µM and inactive = higher.

`COC(=O)c1ccccc1C1CN=NC12Cc1ccccc1C2=O` (stereo not given): the GI50 was 49.2 µM (inactive) in the test with BT-549; > 100 µM (inactive) with SK-OV-3; > 100 µM (inactive) in the test on SN12C; > 100 µM (inactive) with TK-10; 59.2 µM (inactive) in the test with NCI-H522; > 100 µM (inactive) with DU-145. In addition, the GI50 in the test on MCF7 was > 100 µM (inactive); with A549, > 100 µM (inactive); in the test with EKVX, 42.5 µM (inactive); with HL-60 it was 47.4 µM (inactive); in the test on U-251, > 100 µM (inactive); with OVCAR-5 it was > 100 µM (inactive). Further, the GI50 in the test on HCT-15 was more than 100 µM; with HT-29, > 100 µM (inactive); in the test on HOP-62, > 100 µM (inactive); with ACHN, > 100 µM (inactive); in the test with NCI-H226, > 100 µM (inactive); in the test with Hs-578T, 50.7 µM (inactive). Moreover, the results for the GI50 in the test with HCT-116 and in the test on LOX IMVI were > 100 µM (inactive) and 45.4 µM (inactive), respectively.

On to `CC(=O)O[C@H]1C#C/C=C\C#CC[C@@H]2C(=O)N[C@@H]12`, for which the GI50 in the test on BT-549 is 30.7 µM (inactive); with SK-OV-3, 57.8 µM (inactive); with SN12C it was 26 µM (inactive); in the test with TK-10 it was > 59.7 µM (inactive); in the test with NCI-H522 it was 19.1 µM (inactive); in the test with DU-145, 19.2 µM (inactive). Further, the GI50 in the test on MCF7 is 4 µM (inactive); with A549 it was 28.7 µM (inactive); with EKVX, > 100 µM (inactive); with HL-60, 1.99 µM (inactive); in the test on U-251, 20.9 µM (inactive); in the test on OVCAR-5, > 100 µM (inactive). The GI50 with HCT-15 is 22.4 µM; in the test on HT-29, > 49.8 µM (inactive); with HOP-62, 7.94 µM (inactive); with ACHN, 3.5 µM (inactive); with NCI-H226 it was 25.7 µM (inactive); with Hs-578T, 47.3 µM (inactive). Besides, the GI50 was 27 µM (inactive) in the test on HCT-116 and 7.78 µM (inactive) in the test on LOX IMVI.

`CC(=O)OC1CC[C@@]2(C)C(CC[C@]3(C)C2CC=C2[C@@H]4CC(C)(C)CCC4(C)CCC23C)[C@@]1(C)C(=O)O` (stereo not given in full): the GI50 in the test on BT-549 is 29.9 µM (inactive); in the test with SK-OV-3 it was 17.7 µM (inactive); with SN12C it was 16.4 µM (inactive); with TK-10, 22.3 µM (inactive); with NCI-H522 it was 5.77 µM (inactive); with DU-145, 16.6 µM (inactive). The GI50 with MCF7 was 14.9 µM (inactive); in the test on A549, 7.41 µM (inactive); in the test with EKVX, 16.1 µM (inactive); in the test on HL-60, 31.3 µM (inactive); in the test on U-251 it was 10.3 µM (inactive); with OVCAR-5, 22.7 µM (inactive). The GI50 with HCT-15 is 7.93 µM; in the test with HT-29 it was 15.9 µM (inactive); in the test with HOP-62, 19.9 µM (inactive); in the test with ACHN, 12.1 µM (inactive); in the test with NCI-H226 it was 22 µM (inactive); in the test with Hs-578T it was 20.5 µM (inactive). The values for the GI50 in the test with HCT-116 and with LOX IMVI were 13.2 µM (inactive) and 13.8 µM (inactive), respectively.

In the case of `CC(C)C1OC(=O)C(Cc2ccccc2)N(C)C(=O)C(C(C)C)OC(=O)C(Cc2ccccc2)N(C)C(=O)C(C(C)C)OC(=O)C(Cc2ccccc2)N(C)C1=O` (stereo not given), the GI50 in the test with BT-549 was 1.39 µM (inactive); in the test on SK-OV-3, 0.836 µM (active); in the test with SN12C it was 0.804 µM (active); in the test on TK-10, 0.757 µM (active); with NCI-H522, 0.689 µM (active); with DU-145 it was 1.62 µM (inactive). For the same compound, the GI50 is 0.647 µM (active) in the test with MCF7; 0.618 µM (active) with A549; 0.984 µM (active) with EKVX; 0.498 µM (active) with HL-60; 0.661 µM (active) with U-251; 1.03 µM (active) in the test with OVCAR-5. The GI50 in the test on HCT-15 is 0.891 µM; in the test on HT-29, 0.783 µM (active); in the test with HOP-62 it was 0.838 µM (active); with ACHN it was 0.603 µM (active); in the test on NCI-H226, 1.36 µM (inactive); with Hs-578T it was 1.18 µM (inactive). Moreover, the GI50 with HCT-116 was 0.989 µM (active); in the test with LOX IMVI, 0.802 µM (active).

Regarding `COc1cc(OC)cc(OCc2nc3cc(C(F)(F)F)ccc3nc2-c2ccccc2)c1`, the GI50 with BT-549, in the test with SK-OV-3, in the test on SN12C, with TK-10, in the test on NCI-H522 and in the test on DU-145 was > 100 µM (inactive) throughout. Besides, the GI50 with MCF7 was > 100 µM (inactive); in the test on A549 it was > 100 µM (inactive); in the test on EKVX, 22.2 µM (inactive); in the test with HL-60, > 100 µM (inactive); with U-251 it was > 100 µM (inactive); in the test with OVCAR-5, > 100 µM (inactive). In addition, the GI50 is more than 100 µM in the test on HCT-15; 29.4 µM (inactive) in the test with HT-29; > 100 µM (inactive) in the test with HOP-62; > 100 µM (inactive) in the test with ACHN; 90.8 µM (inactive) with NCI-H226; 69.2 µM (inactive) in the test on Hs-578T. In addition, the GI50 in the test on HCT-116 and in the test with LOX IMVI was > 100 µM (inactive) throughout.

`O=[N+]([O-])c1ccc(-c2csc3nc(-c4ccccc4)nn23)cc1`: the GI50 was > 100 µM (inactive) in the test with BT-549; 61.9 µM (inactive) in the test with SK-OV-3; > 100 µM (inactive) in the test on SN12C; > 100 µM (inactive) with TK-10; > 100 µM (inactive) in the test on NCI-H522; > 100 µM (inactive) with DU-145. In addition, the GI50 with MCF7 was > 100 µM (inactive); with A549 it was > 100 µM (inactive); in the test on EKVX, > 100 µM (inactive); in the test on HL-60, > 100 µM (inactive); in the test on U-251, 39.8 µM (inactive); with OVCAR-5, > 100 µM (inactive). Moreover, the GI50 in the test with HCT-15 is more than 100 µM; with HT-29, > 100 µM (inactive); in the test on HOP-62, 43.9 µM (inactive); in the test on ACHN, > 100 µM (inactive); in the test with NCI-H226, > 100 µM (inactive); with Hs-578T, > 100 µM (inactive). The GI50 in the test on HCT-116 and in the test with LOX IMVI was > 100 µM (inactive) in each case.

For `CCc1ccc(CCC(=O)O)nc1`, the GI50 in the test on BT-549, with SK-OV-3, with SN12C, in the test on TK-10, in the test on NCI-H522 and in the test with DU-145 was > 100 µM (inactive) throughout. The GI50 in the test with MCF7, with A549, in the test with EKVX, in the test on HL-60, in the test with U-251 and in the test with OVCAR-5 was > 100 µM (inactive) in each case. For the same compound, the GI50 was more than 100 µM with HCT-15; > 100 µM (inactive) in the test on HT-29; > 100 µM (inactive) in the test on HOP-62; > 100 µM (inactive) with ACHN; > 100 µM (inactive) with NCI-H226; > 100 µM (inactive) in the test on Hs-578T. In addition, the GI50 in the test on HCT-116 and in the test with LOX IMVI was > 100 µM (inactive) each time.

Consider `C/C=C(\C)C(=O)OC1CC(OC(C)=O)C2(C(=O)OC)COC3C2C1(C)C1C2(C(=O)OC)OCC1(C3O)C1(O)C3CC(C4(O)C=COC4O3)C1(C)O2` (stereo not given), for which the GI50 in the test on BT-549, in the test with SK-OV-3, in the test on SN12C, in the test with TK-10, in the test on NCI-H522 and in the test on DU-145 was > 100 µM (inactive) throughout. Also, the GI50 in the test with MCF7 was > 100 µM (inactive); in the test on A549 it was > 100 µM (inactive); with EKVX it was > 100 µM (inactive); with HL-60, 92 µM (inactive); in the test on U-251 it was > 100 µM (inactive); with OVCAR-5, > 100 µM (inactive). Further, the GI50 was more than 100 µM in the test on HCT-15; > 100 µM (inactive) in the test on HT-29; > 100 µM (inactive) in the test on HOP-62; > 100 µM (inactive) with ACHN; > 100 µM (inactive) in the test with NCI-H226; > 100 µM (inactive) in the test with Hs-578T. The GI50 in the test with HCT-116 and in the test on LOX IMVI was > 100 µM (inactive) throughout.

Consider `COc1ccc(CSCc2cc(OC)c(OC)c(OC)c2)cc1`, for which the GI50 is > 84.5 µM (inactive) in the test with BT-549; > 100 µM (inactive) in the test with SK-OV-3; > 86.1 µM (inactive) in the test on SN12C; > 100 µM (inactive) in the test with TK-10; > 100 µM (inactive) in the test on NCI-H522; > 100 µM (inactive) with DU-145. In addition, the GI50 was > 56 µM (inactive) in the test on MCF7; > 100 µM (inactive) in the test on A549; > 31.6 µM (inactive) in the test on EKVX; 5.92 µM (inactive) in the test on HL-60; > 100 µM (inactive) with U-251; > 100 µM (inactive) in the test with OVCAR-5. Further, the GI50 in the test on HCT-15 is more than 45.3 µM; in the test with HT-29, > 100 µM (inactive); in the test with HOP-62 it was > 100 µM (inactive); in the test with ACHN, > 100 µM (inactive); with NCI-H226, > 100 µM (inactive); in the test on Hs-578T, > 66.4 µM (inactive). For the same compound, the results for the GI50 in the test with HCT-116 and with LOX IMVI were > 31.6 µM (inactive) and 28.4 µM (inactive), respectively.

With `C[C@]12[C@@H]3CC[C@H]1[C@@H](OC(=O)Nc1cc([N+](=O)[O-])cc([N+](=O)[O-])c1)C(=O)N2CC3`, the GI50 with BT-549, in the test on SK-OV-3, in the test on SN12C, in the test with TK-10, in the test on NCI-H522 and in the test on DU-145 was > 100 µM (inactive) in each case. Further, the GI50 in the test with MCF7 was > 100 µM (inactive); with A549, > 100 µM (inactive); in the test on EKVX it was > 100 µM (inactive); in the test on HL-60 it was 62.8 µM (inactive); in the test with U-251, > 100 µM (inactive); in the test with OVCAR-5, > 100 µM (inactive). Moreover, the GI50 with HCT-15 was more than 100 µM; in the test on HT-29 it was > 100 µM (inactive); with HOP-62, > 100 µM (inactive); in the test on ACHN, > 100 µM (inactive); with NCI-H226, > 100 µM (inactive); with Hs-578T it was > 100 µM (inactive). The GI50 with HCT-116 and in the test on LOX IMVI was > 100 µM (inactive) each time.

The values are drawn from ChEMBL document CHEMBL1201862, “PubChem BioAssay data set” (2004).
